Experiments:
[1] = tested on: ECV304/C6 co-culture model; settings: in vitro ECV304/C6 co-culture model ref 27; cited from earlier work
[2] = target: T1, α-secretase (tumor necrosis factor-α converting enzyme, TACE) (Homo sapiens, UniProt P78536); assay: TACE (α-secretase) inhibition assay; type: biochemical; settings: mean ± S.E., read-out: Inhibitory activities (%) TACE; for inhibition at 10 µM: sample 10 μM; for inhibition at 100 µM: sample 100 μM
T1 construct: purchased R&D Systems (Minneapolis, MN, USA)
T1 sequence (P78536 215-824): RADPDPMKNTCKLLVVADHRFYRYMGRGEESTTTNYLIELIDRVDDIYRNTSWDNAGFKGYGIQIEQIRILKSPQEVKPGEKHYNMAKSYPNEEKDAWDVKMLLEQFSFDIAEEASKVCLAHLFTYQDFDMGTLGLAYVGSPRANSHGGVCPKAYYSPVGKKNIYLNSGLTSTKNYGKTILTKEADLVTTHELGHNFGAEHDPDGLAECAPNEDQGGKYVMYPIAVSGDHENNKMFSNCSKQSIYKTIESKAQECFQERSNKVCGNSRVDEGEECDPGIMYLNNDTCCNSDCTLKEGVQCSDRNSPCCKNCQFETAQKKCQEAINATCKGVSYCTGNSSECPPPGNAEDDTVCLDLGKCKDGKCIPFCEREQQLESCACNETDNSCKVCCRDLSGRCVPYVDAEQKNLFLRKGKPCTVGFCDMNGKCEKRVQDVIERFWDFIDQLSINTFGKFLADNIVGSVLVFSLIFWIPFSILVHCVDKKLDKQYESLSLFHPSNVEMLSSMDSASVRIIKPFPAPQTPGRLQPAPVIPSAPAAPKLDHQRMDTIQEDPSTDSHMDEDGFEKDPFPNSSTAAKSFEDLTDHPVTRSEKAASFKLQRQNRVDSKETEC
Method: (§3) The BACE1 kit from Invitrogen (Pan Vera, Madison, WI, USA) was used for the measurement of BACE1 activity. α-Secretase (tumor necrosis factor-α converting enzyme, TACE) and its fluorogenic substrate were purchased from R&D Systems (Minneapolis, MN, USA). Elastase, chymotrypsin, trypsin, and their substrates were obtained from Sigma-Aldrich.
(§4) BACE1, TACE, chymotrypsin, trypsin, and elastase assays were carried out according to previously described methods [33]. BACE1, TACE, trypsin, chymotrypsin, and elastase assays were carried out using Rh-[sequence]-Quencher, Mca-PLAQAV-Dpa-RSSSR-NH2, N-benzoyl-l-Arg-pNA, N-benzoyl-L-Tyr-pNA, and N-succinyl-Ala-Ala-Ala-pNA as substrates, respectively.

[3] = tested on: rat brain; settings: cited from earlier work
[4] = target: T2, BACE1 (Homo sapiens, UniProt P56817); assay: Inhibition kinetics on BACE1 (Dixon and Lineweaver–Burk plots); type: biochemical; settings: for Inhibition mode on BACE1: Dixon and Lineweaver–Burk plots; for Ki: Dixon plot
T2 construct: purchased Invitrogen (Pan Vera, Madison, WI, USA)
T2 sequence (P56817 46-501): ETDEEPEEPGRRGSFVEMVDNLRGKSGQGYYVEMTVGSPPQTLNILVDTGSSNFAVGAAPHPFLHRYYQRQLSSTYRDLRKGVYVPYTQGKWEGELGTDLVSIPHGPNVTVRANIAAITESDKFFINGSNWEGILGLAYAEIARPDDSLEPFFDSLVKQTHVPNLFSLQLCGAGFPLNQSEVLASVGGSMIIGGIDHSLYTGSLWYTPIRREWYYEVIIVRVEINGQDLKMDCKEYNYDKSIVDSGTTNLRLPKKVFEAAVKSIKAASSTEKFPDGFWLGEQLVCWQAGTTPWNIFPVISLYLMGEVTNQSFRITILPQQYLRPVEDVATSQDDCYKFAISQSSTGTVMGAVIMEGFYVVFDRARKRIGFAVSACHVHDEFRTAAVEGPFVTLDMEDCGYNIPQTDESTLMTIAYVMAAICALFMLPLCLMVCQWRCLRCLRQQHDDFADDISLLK
Method: (§1) The inhibitory constant (Ki) was obtained by interpretation of the Dixon plot, and Vmax and Km were defined by Lineweaver–Burk plots, using the initial velocities obtained over a substrate concentration range. These kinetic parameters were calculated using the Enzyme Kinetic™ module of SigmaPlot™ version 12.3 (Systat Software, Inc., San Jose, CA, USA).

[5] = target: T2, BACE1; assay: BACE1 inhibition assay (Invitrogen kit, Rh-[…]-Quencher substrate); type: biochemical
Method: as §3, §4

[6] = target: T3, AChE (Electrophorus electricus, UniProt O42275); assay: AChE inhibition, modified Ellman colorimetric method; type: biochemical; settings: mean ± S.E. of triplicate experiments
T3 construct: purchased Sigma-Aldrich (St. Louis, MO, USA)
T3 sequence (O42275 24-633): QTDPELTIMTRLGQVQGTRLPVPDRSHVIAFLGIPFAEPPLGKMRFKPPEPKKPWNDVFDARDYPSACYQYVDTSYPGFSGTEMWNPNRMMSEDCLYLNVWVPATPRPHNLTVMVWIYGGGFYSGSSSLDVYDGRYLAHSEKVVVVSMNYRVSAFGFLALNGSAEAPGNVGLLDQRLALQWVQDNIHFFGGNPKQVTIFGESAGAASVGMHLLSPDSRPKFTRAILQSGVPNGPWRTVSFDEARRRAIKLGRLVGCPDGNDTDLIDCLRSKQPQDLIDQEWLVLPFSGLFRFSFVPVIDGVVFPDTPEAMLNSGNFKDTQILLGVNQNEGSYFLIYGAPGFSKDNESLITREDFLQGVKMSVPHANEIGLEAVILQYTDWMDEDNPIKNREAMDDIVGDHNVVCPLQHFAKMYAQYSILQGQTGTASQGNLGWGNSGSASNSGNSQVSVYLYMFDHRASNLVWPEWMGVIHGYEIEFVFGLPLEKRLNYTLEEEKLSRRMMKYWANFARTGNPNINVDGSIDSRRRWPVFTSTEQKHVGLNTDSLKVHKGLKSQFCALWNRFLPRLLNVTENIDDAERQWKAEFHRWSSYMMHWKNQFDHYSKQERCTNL
Method: (§5) AChE and BChE inhibitory activities were assessed by a modified version of the Ellman colorimetric method [34]. Each reaction mixture consisted of sodium phosphate buffer (pH 7.4), test sample solution, and either AChE (electrophorus electricus, 0.8 U/mL) or BChE (equine serum, 0.8 U/mL) solution, which was then mixed and incubated for 15 min at room temperature. Reactions were initiated upon addition of DTNB and substrate (0.75 mM).
All reactions were performed in 96-well plates in triplicate, and recorded using a microplate spectrophotometer (Molecular Devices, Sunnyvale, CA, USA).

[7] = tested on: Trypsin; assay: Trypsin inhibition assay; type: biochemical; settings: mean ± S.E.
Method: as §3, §4

[8] = tested on: cholinesterases; settings: several studies ref 20, 21; cited from earlier work
[9] = target: T4, Chymotrypsin (Bos taurus, UniProt P00766); assay: Chymotrypsin inhibition assay; type: biochemical; settings: mean ± S.E., read-out: Inhibitory activities (%) Chymotrypsin; for inhibition at 10 µM: sample 10 μM; for inhibition at 100 µM: sample 100 μM
T4 construct: purchased Sigma-Aldrich
Method: as §3, §4

[10] = tested on: brains of rats; settings: pre-administration 40 mg/kg, oral; no reference given; cited from earlier work
[11] = target: T3, AChE; assay: Inhibition kinetics on AChE (Dixon and Lineweaver–Burk plots); type: biochemical; settings: for Inhibition mode on AChE: Dixon and Lineweaver–Burk plots; for Ki: Dixon plot
Method: (§2) AChE and BChE inhibitory activities were assessed by a modified version of the Ellman colorimetric method. Each reaction mixture consisted of sodium phosphate buffer (pH 7.4), test sample solution, and either AChE (electrophorus electricus, 0.8 U/mL) or BChE (equine serum, 0.8 U/mL) solution, which was then mixed and incubated for 15 min at room temperature. Reactions were initiated upon addition of DTNB and substrate (0.75 mM).
as §1

[12] = target: T5, Elastase (Sus scrofa, UniProt P00772); assay: Elastase inhibition assay; type: biochemical; settings: mean ± S.E., read-out: Inhibitory activities (%) Elastase; for inhibition at 10 µM: sample 10 μM; for inhibition at 100 µM: sample 100 μM
T5 construct: purchased Sigma-Aldrich
T5 sequence (P00772 27-266): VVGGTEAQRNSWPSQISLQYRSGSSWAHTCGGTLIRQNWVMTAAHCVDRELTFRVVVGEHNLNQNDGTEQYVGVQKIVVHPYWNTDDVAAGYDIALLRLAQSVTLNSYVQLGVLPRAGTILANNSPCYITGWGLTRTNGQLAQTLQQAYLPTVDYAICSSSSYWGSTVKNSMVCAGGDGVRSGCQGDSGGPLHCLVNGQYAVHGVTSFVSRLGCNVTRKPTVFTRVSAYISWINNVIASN
Method: as §3, §4

[13] = target: T6, BChE (Equus caballus, UniProt P81908); assay: BChE inhibition, modified Ellman colorimetric method; type: biochemical, equine; settings: mean ± S.E. of triplicate experiments
T6 construct: BChE (equine serum, 0.8 U/mL); purchased Sigma-Aldrich (St. Louis, MO, USA); host or cells: equine serum
T6 sequence (P81908 whole entry): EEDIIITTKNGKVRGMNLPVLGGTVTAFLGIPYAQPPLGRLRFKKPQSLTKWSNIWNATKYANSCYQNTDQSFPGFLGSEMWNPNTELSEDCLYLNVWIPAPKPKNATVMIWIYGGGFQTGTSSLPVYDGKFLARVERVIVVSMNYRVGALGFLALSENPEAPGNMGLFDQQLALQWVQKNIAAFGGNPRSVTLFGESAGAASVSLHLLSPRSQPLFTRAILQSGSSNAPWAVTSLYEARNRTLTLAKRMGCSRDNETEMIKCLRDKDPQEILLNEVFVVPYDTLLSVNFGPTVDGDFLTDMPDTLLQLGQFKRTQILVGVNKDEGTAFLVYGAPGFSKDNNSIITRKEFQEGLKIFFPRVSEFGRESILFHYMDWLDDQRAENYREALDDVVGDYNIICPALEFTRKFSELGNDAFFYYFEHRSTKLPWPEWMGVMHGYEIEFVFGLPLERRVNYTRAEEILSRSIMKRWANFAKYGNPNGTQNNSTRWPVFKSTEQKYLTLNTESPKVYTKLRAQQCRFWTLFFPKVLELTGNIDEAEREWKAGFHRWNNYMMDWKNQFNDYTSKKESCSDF
Method: as §5
Enzymatic hydrolysis, mediated by AChE or BChE, was monitored according to the formation of yellow 5-thio-2-nitrobenzoate anions at 405 nm for 15 min, which were produced by the reaction of DTNB with thiocholine released from ACh or BCh. All reactions were performed in 96-well plates in triplicate, and recorded using a microplate spectrophotometer (Molecular Devices, Sunnyvale, CA, USA).

[14] = tested on: APP/PS1 Tg mice; settings: oral 100 mg/kg for 10 days ref 16; cited from earlier work
[15] = tested on: APPswe/PS1dE9 Tg mice; settings: chronic administration for 16 weeks ref 18; cited from earlier work
[16] = target: T6, BChE; assay: Inhibition kinetics on BChE (Dixon and Lineweaver–Burk plots); type: biochemical, equine
Method: as §2, §1

[17] = tested on: AChE; settings: previous study ref 19; read-out: IC50 against AChE; cited from earlier work
[18] = tested on: mice; settings: orally 4.5 mg/kg body weight of mice ref 23; cited from earlier work

| SMILES | BBB crossing [1] | inhibition at 10 µM [2] [%] | inhibition at 100 µM [2] [%] | Inhibition mode on BACE1 [4] | Ki [4] [µM] | IC50 [5] [µM] | IC50 [6] [µM] | Inhibitory activities (%) Trypsin ([7]; sample 10 μM) [%] | Inhibitory activities (%) Trypsin ([7]; sample 100 μM) [%] | Inhibitory activity against cholinesterases [8] | inhibition at 10 µM [9] [%] | inhibition at 100 µM [9] [%] | Inhibition mode on AChE [11] | Ki [11] [µM] | inhibition at 10 µM [12] [%] | inhibition at 100 µM [12] [%] | IC50 [13] [µM] | further results |
| --- | --- | --- | --- | --- | --- | --- | --- | --- | --- | --- | --- | --- | --- | --- | --- | --- | --- | --- |
| COc1ccc(C2CC(=O)c3c(O)cc(O)cc3O2)cc1O (stereo not drawn) [Hesperetin, 4′-methoxy-3′,5,7-trihydroxyflavanone] | cross the BBB | 8.66 ± 0.7 | 11.3 ± 1.37 | noncompetitive inhibition | 42.7 | 22.1 ± 1.81 | 45.7 ± 2.69 | 5.31 ± 0.39 | 4.72 ± 0.45 | low inhibitory activity | 4.91 ± 1.4 | 9.21 ± 0.33 | noncompetitive inhibition | 53.9 | 4.84 ± 0.46 | 9.95 ± 1.28 | > 100 | Presence in the rat brain ([3]; after oral administration of hesperidin ref 31): detected in the rat brain; Presence in the striatum of rat brains ([3]; intravenous 50 mg/kg ref 29): detected in the striatum of rat brains; Effect on cadmium-induced damage in the brains of rats [10]: significantly attenuated cadmium-induced oxidative stress and mitochondrial dysfunction |
| COc1ccc([C@@H]2CC(=O)c3c(O)cc(O[C@@H]4O[C@H](CO[C@@H]5O[C@@H](C)[C@H](O)[C@@H](O)[C@H]5O)[C@@H](O)[C@H](O)[C@H]4O)cc3O2)cc1O [Hesperidin, hesperidin] | – | 8.53 ± 1.05 | 9.19 ± 1.2 | noncompetitive inhibition | 39.4 | 17 ± 1.25 | 22.8 ± 2.78 | 2.27 ± 0.30 | 1.41 ± 0.22 | low inhibitory activity | 3.19 ± 0.28 | 4.11 ± 0.34 | noncompetitive inhibition | 21.4 | 6.91 ± 0.83 | 6 ± 1.33 | 48.1 ± 0.74 | Presence in brain homogenates ([3]; systemic administration of hesperidin to rats ref 30): presence of hesperidin was confirmed by brain homogenates; Neuroprotective effect in APP/PS1 Tg mice [14]: recovered microglial activation, APP expression, Aβ deposition, and behavioral dysfunction; Effect of chronic administration in APPswe/PS1dE9 Tg mice [15]: attenuated oxidative damage, increased anti-oxidative defense, and alleviated cognitive impairment; Inhibition mode on BChE ([16]; Dixon and Lineweaver–Burk plots): noncompetitive inhibition; Ki ([16]; Dixon plot): 93.6 µM |
| COc1cc(O[C@@H]2O[C@H](CO[C@@H]3O[C@H](CO)[C@@H](O)[C@H](O)[C@H]3O)[C@@H](O)[C@H](O)[C@H]2O)c2c(O)c3c(=O)cc(C)oc3cc2c1 [Rubrofusarin-6-O-β-D-gentiobioside] | – | – | – | – | – | – | – | – | – | – | – | – | – | – | – | – | – | IC50 [17]: 15.9 ± 0.32 µM |
| O=C1CC(c2ccc(O)cc2)Oc2cc(O)cc(O)c21 (stereo not drawn) [Naringenin] | cross the BBB | 5.15 ± 0.98 | 6.95 ± 1.52 | noncompetitive inhibition | 47.1 | 30.3 ± 2.06 | 42.7 ± 4.3 | 7.80 ± 1.25 | 5.84 ± 0.75 | – | 8.77 ± 0.74 | 6.88 ± 0.89 | noncompetitive inhibition | 45.4 | 9.74 ± 0.41 | 10.5 ± 1.17 | > 100 | Presence in cerebral cortexes of rats ([3]; intravenous naringenin 20 mg/kg ref 28): identified; Effect on scopolamine-induced amnesia [18]: significantly mitigated scopolamine-induced amnesia |

Source: paper PMC6100189, “In Silico Docking and In Vitro Approaches towards BACE1 and Cholinesterases Inhibitory Effect of Citrus Flavanones” (Molecules : A Journal of Synthetic Chemistry and Natural …, 2018)
